Data as given in ChEMBL document CHEMBL1140544, “Microbial transformation of three bufadienolides by Nocardia sp. and some insight for the cytotoxic structure-activity relationship (SAR)” (Bioorg Med Chem Lett, 2007).

Assays:
HeLa = experiment: Cytotoxicity against human HeLa cells; type: functional, cell-based
HepG2 = experiment: Cytotoxicity against human HepG2 cells; type: functional, cell-based
BGC-823 = experiment: Cytotoxicity against human BGC823 cells; type: cell-based

| SMILES | IC50 (HeLa) | IC50 (HepG2) | IC50 (BGC-823) |
| --- | --- | --- | --- |
| C[C@]12CC[C@H](O)C[C@H]1CC[C@@H]1[C@@H]2CC[C@]2(C)[C@@H](c3ccc(=O)oc3)C[C@H]3O[C@]132 [BUFOGENIN] | > 50000 nM | > 50000 nM | 7890 nM |
| C[C@]12CC[C@H](O)C[C@H]1CC[C@@H]1[C@@H]2CC[C@]2(C)[C@@H](c3ccc(=O)oc3)CC[C@]12O [BUFALIN] | 730 nM | 640 nM | 990 nM |
| CC(=O)O[C@H]1CC[C@@]2(C)[C@H](CC[C@@H]3[C@@H]2CC[C@]2(C)[C@@H](c4ccc(=O)oc4)CC[C@]32O)C1 | 1140 nM | 740 nM | 700 nM |
| CC(=O)O[C@H]1CC[C@@]2(C)[C@H](CC[C@@H]3[C@@H]2CC[C@]2(C)[C@@H](c4ccc(=O)oc4)[C@@H](OC(C)=O)[C@H]4O[C@]342)C1 | 1090 nM | 6440 nM | 4110 nM |
| CC(=O)O[C@H]1[C@H]2O[C@]23[C@@H]2CC[C@@H]4C[C@@H](O)CC[C@]4(C)[C@H]2CC[C@]3(C)[C@H]1c1ccc(=O)oc1 [CINOBUFAGIN] | 760 nM | 5200 nM | 8500 nM |
| CC(=O)O[C@H]1CC[C@@]2(C)[C@H](CC[C@@H]3[C@@H]2CC[C@]2(C)[C@@H](c4ccc(=O)oc4)C[C@H]4O[C@]342)C1 | > 50000 nM | > 50000 nM | 19800 nM |
| CC(=O)O[C@H]1CC[C@@]2(C)[C@H](CC[C@@H]3[C@@H]2CC[C@]2(C)[C@@H](c4ccc(=O)oc4)[C@@H](OC(C)=O)[C@@H](O)[C@]32O)C1 | 450 nM | 3100 nM | 3370 nM |
| CC(=O)O[C@H]1C(=O)[C@@]2(C)[C@H]([C@H](OC(=O)c3ccccc3)[C@]3(O)C[C@H](OC(=O)[C@H](O)[C@@H](NC(=O)c4ccccc4)c4ccccc4)C(C)=C1C3(C)C)[C@]1(OC(C)=O)CO[C@@H]1C[C@@H]2O [PACLITAXEL] | 20 nM | 820 nM | 1150 nM |
